Test results published in ChEMBL document CHEMBL4507287, “Data for DCP probe MRL-650” (2021).

Experiments:
[1] = target: Cyclin-dependent kinase 15 (Homo sapiens) (UniProt Q96Q40); details: Compound concentration 1000.0 nM
[2] = target: Serine/threonine-protein kinase NIM1 (Homo sapiens) (UniProt Q8IY84); details: Compound concentration 1000.0 nM
[3] = target: Serine/threonine-protein kinase Nek11 (Homo sapiens) (UniProt Q8NG66); details: Compound concentration 1000.0 nM
[4] = target: Ribosomal protein S6 kinase beta-1 (Homo sapiens) (UniProt P23443); details: Compound concentration 1000.0 nM
[5] = target: Phosphatidylinositol 4,5-bisphosphate 3-kinase catalytic subunit gamma isoform (Homo sapiens) (UniProt P48736); details: Compound concentration 1000.0 nM
[6] = test system: Tyrosine-protein kinase ABL1 (Homo sapiens), P00519 [T315I]; details: Compound concentration 1000.0 nM
[7] = target: Phosphatidylinositol 3-kinase C2 domain-containing subunit gamma (Homo sapiens) (UniProt O75747); details: Compound concentration 1000.0 nM
Sequence of Phosphatidylinositol 3-kinase C2 domain-containing subunit gamma (Homo sapiens) (O75747 whole entry, the tested form may be a part): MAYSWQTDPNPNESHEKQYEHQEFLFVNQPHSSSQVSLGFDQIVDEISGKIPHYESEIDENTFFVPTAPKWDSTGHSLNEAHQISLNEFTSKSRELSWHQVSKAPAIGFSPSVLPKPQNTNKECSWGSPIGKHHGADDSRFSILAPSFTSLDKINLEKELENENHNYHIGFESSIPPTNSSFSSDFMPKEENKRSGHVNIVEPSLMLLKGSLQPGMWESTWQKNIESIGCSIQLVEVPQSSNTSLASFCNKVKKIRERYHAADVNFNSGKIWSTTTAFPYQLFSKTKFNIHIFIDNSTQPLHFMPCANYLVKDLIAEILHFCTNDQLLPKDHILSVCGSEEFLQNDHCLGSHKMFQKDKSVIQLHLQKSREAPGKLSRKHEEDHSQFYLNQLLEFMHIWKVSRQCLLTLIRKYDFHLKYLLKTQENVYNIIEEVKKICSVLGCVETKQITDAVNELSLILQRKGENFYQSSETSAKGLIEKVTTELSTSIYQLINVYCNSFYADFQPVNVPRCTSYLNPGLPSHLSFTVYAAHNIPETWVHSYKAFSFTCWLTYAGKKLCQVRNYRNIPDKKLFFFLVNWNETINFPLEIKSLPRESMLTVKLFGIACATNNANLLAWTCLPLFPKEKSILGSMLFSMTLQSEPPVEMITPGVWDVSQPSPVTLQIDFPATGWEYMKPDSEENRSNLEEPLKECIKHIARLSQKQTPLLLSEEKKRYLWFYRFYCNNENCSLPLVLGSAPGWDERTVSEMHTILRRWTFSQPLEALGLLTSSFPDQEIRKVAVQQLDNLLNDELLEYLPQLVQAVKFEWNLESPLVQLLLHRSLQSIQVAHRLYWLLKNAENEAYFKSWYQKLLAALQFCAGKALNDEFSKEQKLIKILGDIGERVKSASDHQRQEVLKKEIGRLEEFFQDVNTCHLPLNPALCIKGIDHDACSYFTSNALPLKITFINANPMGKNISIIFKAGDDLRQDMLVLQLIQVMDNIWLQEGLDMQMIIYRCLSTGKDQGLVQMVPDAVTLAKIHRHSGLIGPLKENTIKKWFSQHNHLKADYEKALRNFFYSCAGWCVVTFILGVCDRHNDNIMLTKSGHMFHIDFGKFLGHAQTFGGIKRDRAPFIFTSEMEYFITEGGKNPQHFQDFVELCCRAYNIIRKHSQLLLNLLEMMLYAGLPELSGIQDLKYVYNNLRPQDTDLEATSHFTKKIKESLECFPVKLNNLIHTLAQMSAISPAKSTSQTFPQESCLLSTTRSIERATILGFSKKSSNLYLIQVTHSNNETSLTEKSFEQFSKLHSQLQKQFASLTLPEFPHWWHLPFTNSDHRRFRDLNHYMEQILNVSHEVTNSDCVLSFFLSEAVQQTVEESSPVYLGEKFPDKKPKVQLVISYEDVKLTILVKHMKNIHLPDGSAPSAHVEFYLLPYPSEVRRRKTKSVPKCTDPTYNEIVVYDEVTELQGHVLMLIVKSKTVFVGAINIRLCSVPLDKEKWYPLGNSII

[8] = target: Ephrin type-A receptor 4 (Homo sapiens) (UniProt P54764); details: Compound concentration 1000.0 nM
[9] = target: Hepatocyte growth factor receptor (Homo sapiens) (UniProt P08581); details: Compound concentration 1000.0 nM
[10] = target: Serine/threonine-protein kinase/endoribonuclease IRE1 (Homo sapiens) (UniProt O75460); details: Compound concentration 1000.0 nM
[11] = target: Serine/threonine-protein kinase DCLK1 (Homo sapiens) (UniProt O15075); details: Compound concentration 1000.0 nM
[12] = test system: Proto-oncogene tyrosine-protein kinase receptor Ret (Homo sapiens), P07949 [V804M]; details: Compound concentration 1000.0 nM
[13] = target: Non-receptor tyrosine-protein kinase TYK2 (Homo sapiens) (UniProt P29597); details: Compound concentration 1000.0 nM
[14] = test system: Proto-oncogene tyrosine-protein kinase receptor Ret (Homo sapiens), P07949 [M918T]; details: Compound concentration 1000.0 nM
[15] = target: Phosphatidylinositol 4,5-bisphosphate 3-kinase catalytic subunit beta isoform (Homo sapiens) (UniProt P42338); details: Compound concentration 1000.0 nM
[16] = target: Casein kinase I isoform gamma-2 (Homo sapiens) (UniProt P78368); details: Compound concentration 1000.0 nM
[17] = target: Dual specificity mitogen-activated protein kinase kinase 3 (Homo sapiens) (UniProt P46734); details: Compound concentration 1000.0 nM
Sequence of Dual specificity mitogen-activated protein kinase kinase 3 (Homo sapiens) (P46734 whole entry): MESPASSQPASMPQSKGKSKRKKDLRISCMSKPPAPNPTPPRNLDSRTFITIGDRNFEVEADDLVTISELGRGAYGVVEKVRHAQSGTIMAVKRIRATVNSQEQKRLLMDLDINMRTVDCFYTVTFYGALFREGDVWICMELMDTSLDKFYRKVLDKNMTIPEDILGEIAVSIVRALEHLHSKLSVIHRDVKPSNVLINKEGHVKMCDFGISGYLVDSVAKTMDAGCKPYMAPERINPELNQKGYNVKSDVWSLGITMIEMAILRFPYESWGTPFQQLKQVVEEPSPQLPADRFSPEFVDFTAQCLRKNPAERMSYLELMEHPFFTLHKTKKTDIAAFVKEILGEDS

[18] = target: Serine/threonine-protein kinase DCLK3 (Homo sapiens) (UniProt Q9C098); details: Compound concentration 1000.0 nM
[19] = target: Alpha-2B adrenergic receptor (Homo sapiens) (UniProt P18089); details: Compound concentration 10.0 uM
[20] = target: Ribosomal protein S6 kinase alpha-5 (Homo sapiens) (UniProt O75582); details: Compound concentration 1000.0 nM
[21] = target: Mitogen-activated protein kinase 7 (Homo sapiens) (UniProt Q13164); details: Compound concentration 1000.0 nM
[22] = target: Misshapen-like kinase 1 (Homo sapiens) (UniProt Q8N4C8); details: Compound concentration 1000.0 nM
[23] = target: Tyrosine-protein kinase Fes/Fps (Homo sapiens) (UniProt P07332); details: Compound concentration 1000.0 nM
[24] = target: Beta-3 adrenergic receptor (Homo sapiens, UniProt P13945); details: Compound concentration 10.0 uM
[25] = target: Ephrin type-A receptor 3 (Homo sapiens) (UniProt P29320); details: Compound concentration 1000.0 nM
[26] = target: Cyclin-dependent kinase 2 homolog (Plasmodium falciparum (isolate 3D7)) (UniProt P61075); details: Compound concentration 1000.0 nM
[27] = target: NT-3 growth factor receptor (Homo sapiens) (UniProt Q16288); details: Compound concentration 1000.0 nM
[28] = target: Transient receptor potential cation channel subfamily M member 6 (Homo sapiens) (UniProt Q9BX84); details: Compound concentration 1000.0 nM
[29] = target: Activin receptor type-2B (Homo sapiens) (UniProt Q13705); details: Compound concentration 1000.0 nM
[30] = target: Fibroblast growth factor receptor 3 (Homo sapiens) (UniProt P22607); details: Compound concentration 1000.0 nM
[31] = target: NUAK family SNF1-like kinase 1 (Homo sapiens) (UniProt O60285); details: Compound concentration 1000.0 nM
[32] = target: High affinity nerve growth factor receptor (Homo sapiens) (UniProt P04629); details: Compound concentration 1000.0 nM
[33] = test system: eIF-2-alpha kinase GCN2 (Homo sapiens), Q9P2K8 [S808G]; details: Compound concentration 1000.0 nM
[34] = target: Serine/threonine-protein kinase PAK 1 (Homo sapiens) (UniProt Q13153); details: Compound concentration 1000.0 nM
[35] = test system: Receptor-type tyrosine-protein kinase FLT3 (Homo sapiens), P36888 [UNDEFINED MUTATION]; details: Compound concentration 1000.0 nM
[36] = target: Serine/threonine-protein kinase pim-2 (Homo sapiens) (UniProt Q9P1W9); details: Compound concentration 1000.0 nM
Sequence of Serine/threonine-protein kinase pim-2 (Homo sapiens) (Q9P1W9 whole entry, looked up): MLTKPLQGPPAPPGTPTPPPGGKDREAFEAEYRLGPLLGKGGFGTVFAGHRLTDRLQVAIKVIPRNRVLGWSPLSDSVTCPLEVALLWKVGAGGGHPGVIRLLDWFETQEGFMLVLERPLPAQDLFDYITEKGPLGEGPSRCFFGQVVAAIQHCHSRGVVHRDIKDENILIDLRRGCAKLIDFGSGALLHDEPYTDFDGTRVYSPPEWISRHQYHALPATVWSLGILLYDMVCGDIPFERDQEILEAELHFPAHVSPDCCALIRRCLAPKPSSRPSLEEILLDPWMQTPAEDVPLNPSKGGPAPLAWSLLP

[37] = target: Mitogen-activated protein kinase kinase kinase 19 (Homo sapiens) (UniProt Q56UN5); details: Compound concentration 1000.0 nM
Sequence of Mitogen-activated protein kinase kinase kinase 19 (Homo sapiens) (Q56UN5 whole entry): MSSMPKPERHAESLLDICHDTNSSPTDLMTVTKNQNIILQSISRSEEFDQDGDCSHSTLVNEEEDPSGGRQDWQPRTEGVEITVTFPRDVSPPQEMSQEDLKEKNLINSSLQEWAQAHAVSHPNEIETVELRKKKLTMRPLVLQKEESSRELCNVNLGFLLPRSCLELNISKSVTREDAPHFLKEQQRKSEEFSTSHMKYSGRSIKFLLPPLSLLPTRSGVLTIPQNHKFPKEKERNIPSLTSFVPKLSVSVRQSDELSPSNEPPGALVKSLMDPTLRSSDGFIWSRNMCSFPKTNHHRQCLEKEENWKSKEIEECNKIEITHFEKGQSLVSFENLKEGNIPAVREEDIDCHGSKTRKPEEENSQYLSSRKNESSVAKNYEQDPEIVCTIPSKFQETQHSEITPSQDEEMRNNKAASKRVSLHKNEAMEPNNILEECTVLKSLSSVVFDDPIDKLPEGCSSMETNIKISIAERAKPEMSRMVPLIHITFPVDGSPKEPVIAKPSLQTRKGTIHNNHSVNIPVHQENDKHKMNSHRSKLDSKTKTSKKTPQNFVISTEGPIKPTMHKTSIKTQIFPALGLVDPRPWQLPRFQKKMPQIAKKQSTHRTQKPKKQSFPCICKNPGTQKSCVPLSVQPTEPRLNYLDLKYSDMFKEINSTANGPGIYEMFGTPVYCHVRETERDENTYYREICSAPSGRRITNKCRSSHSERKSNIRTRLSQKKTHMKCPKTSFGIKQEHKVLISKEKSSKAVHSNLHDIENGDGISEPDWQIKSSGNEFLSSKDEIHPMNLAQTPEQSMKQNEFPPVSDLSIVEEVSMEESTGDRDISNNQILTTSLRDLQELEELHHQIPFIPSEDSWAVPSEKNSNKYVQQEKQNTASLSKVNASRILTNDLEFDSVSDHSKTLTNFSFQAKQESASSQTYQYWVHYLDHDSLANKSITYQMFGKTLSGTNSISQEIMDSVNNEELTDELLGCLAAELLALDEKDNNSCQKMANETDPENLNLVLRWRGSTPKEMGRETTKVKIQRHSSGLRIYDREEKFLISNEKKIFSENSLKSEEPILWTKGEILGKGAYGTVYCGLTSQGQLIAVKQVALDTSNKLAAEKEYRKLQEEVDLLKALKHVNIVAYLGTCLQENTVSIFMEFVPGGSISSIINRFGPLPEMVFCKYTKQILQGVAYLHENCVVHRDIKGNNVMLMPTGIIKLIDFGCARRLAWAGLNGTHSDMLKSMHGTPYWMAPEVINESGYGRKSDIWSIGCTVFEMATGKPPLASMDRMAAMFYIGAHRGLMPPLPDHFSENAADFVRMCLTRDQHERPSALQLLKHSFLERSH

[38] = test system: Mast/stem cell growth factor receptor Kit (Homo sapiens), P10721 [V559D,V654A]; details: Compound concentration 1000.0 nM
[39] = target: Mitogen-activated protein kinase kinase kinase 5 (Homo sapiens) (UniProt Q99683); details: Compound concentration 1000.0 nM
[40] = test system: Tyrosine-protein kinase ABL1 (Homo sapiens), P00519 [F317I]; details: Compound concentration 1000.0 nM
[41] = target: Casein kinase II subunit alpha' (Homo sapiens) (UniProt P19784); details: Compound concentration 1000.0 nM
Nociceptin receptor = Nociceptin receptor (Homo sapiens, UniProt P41146); assay: GPCRScan assay: inhibition of NOP; parameters: radioligand conc. used [nm] 0.5 – 2.0, parental cells HEKT
Sequence of Nociceptin receptor (P41146 whole entry): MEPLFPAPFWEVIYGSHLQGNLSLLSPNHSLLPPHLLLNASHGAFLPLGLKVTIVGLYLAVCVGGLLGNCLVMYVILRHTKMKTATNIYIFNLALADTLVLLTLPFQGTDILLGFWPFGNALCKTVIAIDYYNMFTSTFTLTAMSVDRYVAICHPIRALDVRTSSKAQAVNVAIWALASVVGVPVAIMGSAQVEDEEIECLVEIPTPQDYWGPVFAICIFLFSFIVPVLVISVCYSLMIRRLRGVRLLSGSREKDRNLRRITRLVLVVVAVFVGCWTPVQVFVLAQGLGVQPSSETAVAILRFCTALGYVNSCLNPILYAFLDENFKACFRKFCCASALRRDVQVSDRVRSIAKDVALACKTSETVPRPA

[42] = target: Alpha-1A adrenergic receptor (Homo sapiens) (UniProt P35348); details: Compound concentration 10.0 uM
[43] = target: Ephrin type-A receptor 6 (Homo sapiens) (UniProt Q9UF33); details: Compound concentration 1000.0 nM
Sequence of Ephrin type-A receptor 6 (Homo sapiens) (Q9UF33 whole entry): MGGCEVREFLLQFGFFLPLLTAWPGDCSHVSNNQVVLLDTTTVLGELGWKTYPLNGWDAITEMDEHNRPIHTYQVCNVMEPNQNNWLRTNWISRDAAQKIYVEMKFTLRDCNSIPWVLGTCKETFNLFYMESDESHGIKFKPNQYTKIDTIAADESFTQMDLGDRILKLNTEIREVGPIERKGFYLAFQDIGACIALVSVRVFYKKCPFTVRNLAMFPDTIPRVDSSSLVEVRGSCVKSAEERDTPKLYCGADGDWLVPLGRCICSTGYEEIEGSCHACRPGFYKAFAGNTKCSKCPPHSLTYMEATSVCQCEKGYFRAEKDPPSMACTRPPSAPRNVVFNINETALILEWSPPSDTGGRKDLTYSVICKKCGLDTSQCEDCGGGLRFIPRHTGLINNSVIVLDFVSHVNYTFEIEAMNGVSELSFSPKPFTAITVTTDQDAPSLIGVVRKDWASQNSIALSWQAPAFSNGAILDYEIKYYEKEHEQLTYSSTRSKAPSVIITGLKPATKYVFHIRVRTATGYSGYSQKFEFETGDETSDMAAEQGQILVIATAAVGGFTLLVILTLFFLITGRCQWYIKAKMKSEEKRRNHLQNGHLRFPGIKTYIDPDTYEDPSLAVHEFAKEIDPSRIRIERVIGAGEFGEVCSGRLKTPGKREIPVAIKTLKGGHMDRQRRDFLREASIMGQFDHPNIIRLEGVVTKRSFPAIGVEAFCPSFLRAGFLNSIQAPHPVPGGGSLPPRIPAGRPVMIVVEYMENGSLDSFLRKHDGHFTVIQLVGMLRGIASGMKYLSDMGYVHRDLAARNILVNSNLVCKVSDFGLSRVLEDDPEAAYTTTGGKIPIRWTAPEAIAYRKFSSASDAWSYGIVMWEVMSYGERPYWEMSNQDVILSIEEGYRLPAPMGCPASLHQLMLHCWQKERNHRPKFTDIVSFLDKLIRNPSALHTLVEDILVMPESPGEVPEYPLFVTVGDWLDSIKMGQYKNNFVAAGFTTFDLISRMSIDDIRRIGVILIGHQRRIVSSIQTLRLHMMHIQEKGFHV

[44] = target: Serine/threonine-protein kinase 38-like (Homo sapiens) (UniProt Q9Y2H1); details: Compound concentration 1000.0 nM

CC(=O)c1c(NS(C)(=O)=O)c2cc(-c3ccc(Cl)cc3)c(-c3ccc(Cl)cc3Cl)nc2n(C)c1=O [MRL-CB1-NC]
residual activity [1]: 100%
residual activity [2]: 81%
residual activity [3]: 79%
residual activity [4]: 95%
residual activity [5]: 82%
residual activity [6]: 93%
residual activity [7]: 91%
residual activity [8]: 98%
residual activity [9]: 100%
residual activity [10]: 77%
residual activity [11]: 98%
residual activity [12]: 100%
residual activity [13]: 89%
residual activity [14]: 100%
residual activity [15]: 100%
residual activity [16]: 100%
residual activity [17]: 96%
residual activity [18]: 100%
inhibition [19]: 67.2%
residual activity [20]: 72%
residual activity [21]: 92%
residual activity [22]: 100%
residual activity [23]: 87%
inhibition [24]: 69.3%
residual activity [25]: 92%
residual activity [26]: 100%
residual activity [27]: 98%
residual activity [28]: 100%
residual activity [29]: 100%
residual activity [30]: 100%
residual activity [31]: 86%
residual activity [32]: 64%
residual activity [33]: 100%
residual activity [34]: 96%
residual activity [35]: 94%
residual activity [36]: 100%
residual activity [37]: 85%
residual activity [38]: 89%
residual activity [39]: 85%
residual activity [40]: 85%
residual activity [41]: 100%
inhibition (Nociceptin receptor; Compound concentration 10.0 uM): -2.4%
inhibition [42]: 28.5%
residual activity [43]: 93%
residual activity [44]: 76%

CC(=O)Nc1c(C(C)=O)c(=O)n(C)c2nc(-c3ccc(Cl)cc3Cl)c(-c3ccc(Cl)cc3)cc12 [NAPHTHYRIDINONE]
residual activity [1]: 100%
residual activity [2]: 100%
residual activity [3]: 100%
residual activity [4]: 95%
residual activity [5]: 78%
residual activity [6]: 100%
residual activity [7]: 63%
residual activity [8]: 96%
residual activity [9]: 100%
residual activity [10]: 100%
residual activity [11]: 100%
residual activity [12]: 100%
residual activity [13]: 100%
residual activity [14]: 100%
residual activity [15]: 100%
residual activity [16]: 100%
residual activity [17]: 86%
residual activity [18]: 100%
inhibition [19]: 16.6%
residual activity [20]: 86%
residual activity [21]: 100%
residual activity [22]: 100%
residual activity [23]: 100%
inhibition [24]: 37.6%
residual activity [25]: 100%
residual activity [26]: 100%
residual activity [27]: 100%
residual activity [28]: 100%
residual activity [29]: 100%
residual activity [30]: 100%
residual activity [31]: 100%
residual activity [32]: 100%
residual activity [33]: 48%
residual activity [34]: 100%
residual activity [35]: 100%
residual activity [36]: 100%
residual activity [37]: 100%
residual activity [38]: 100%
residual activity [39]: 100%
residual activity [40]: 94%
residual activity [41]: 100%
Ki (Nociceptin receptor): 10 µM
pKi (Nociceptin receptor): 5
inhibition [42]: -6.63%
residual activity [43]: 100%
residual activity [44]: 87%
